Earlier results, collected in patent US20210040357A1, “ELECTROCONDUCTIVE ADHESIVE COMPOSITION, CURED PRODUCT OF ELECTROCONDUCTIVE ADHESIVE, AND ELECTRONIC DEVICE” (TANAKA KIKINZOKU KOGYO K.K., priority 2018, published 2021).

Row | SMILES | Acid dissociation constant pKa
1 | CC(C)C1=CC2=CC[C@@H]3[C@](C)(CCC[C@@]3(C)C(=O)O)[C@H]2CC1 [Abietic acid] | 4.64
2 | CCCCCCCCCCCCCCCCCC(=O)O [Stearic acid] | about 5.0
3 | CCCCCCCC/C=C\CCCCCCCC(=O)O [oleic acid] | about 5.0
